Results on three molecules are retold here after patent publication US9023789B2, “Amylin analogs and pharmaceutical compositions thereof” (Novo Nordisk A/S, priority 2012, dated 2015).

pEC50, pIC50: −log10 of the molar value. ≈ marks a conversion by molar mass, not a printed value. Where two headings read alike, the source gives them in different places. Numbered stars: 1 amine (or outer) side, 2 acyl side, 3 side chain; on linkers, the order of the positions; unused ones are H or OH. Bridge positions count the residues as written; N and C are the ends. Side chains are listed from the residue outwards. Peptide text beside a SMILES is read from it. * marks the point of attachment. C20 diacid = O=C(O)CCCCCCCCCCCCCCCCCCC(=O)*; γGlu = O=C(O)[C@H](CCC(=O)[*:2])N[*:1]; AEEA = NCCOCCOCC(=O)O

The target of data set [1] is T1, rat calcitonin receptor (Rattus norvegicus, UniProt P32214).
T1 construct: expressed in transfected cells; host or cells: BHK tk'ts 13 (transient, FuGENE 6), membranes
T1 sequence (P32214 25-479 isoform P32214-2 limits assumed): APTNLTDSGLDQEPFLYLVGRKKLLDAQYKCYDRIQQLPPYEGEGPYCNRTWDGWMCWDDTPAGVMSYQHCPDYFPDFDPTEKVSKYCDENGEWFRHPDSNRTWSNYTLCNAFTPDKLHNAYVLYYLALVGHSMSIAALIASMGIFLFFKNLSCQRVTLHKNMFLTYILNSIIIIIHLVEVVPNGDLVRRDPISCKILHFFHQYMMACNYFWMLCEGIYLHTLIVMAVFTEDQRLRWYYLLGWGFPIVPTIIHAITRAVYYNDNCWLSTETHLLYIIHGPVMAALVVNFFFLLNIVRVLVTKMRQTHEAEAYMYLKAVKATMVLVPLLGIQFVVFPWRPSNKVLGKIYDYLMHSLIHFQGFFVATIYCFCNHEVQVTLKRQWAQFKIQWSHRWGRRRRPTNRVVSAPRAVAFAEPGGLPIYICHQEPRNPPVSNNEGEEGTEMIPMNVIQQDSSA
Kind of data set: ASSAY (VIII) binding to the rat calcitonin receptor. The following applies: Table 7, read-out: rCTR bind IC50. Summed up: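 Rat calcitonin receptor is expressed transiently in BHK tk′ts 13 cells cultured in DMEM with 10% FBS. Roughly two days (approximately 48 hours) post-transfection, cells are harvested for membrane preparation.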

Data set [2] addresses T2, rat amylin receptor (rat calcitonin receptor + rat RAMP 3) (Rattus norvegicus, UniProt P32214+Q9JJ73).
T2 construct: expressed in transfected cells; host or cells: BHK tk'ts 13 (transient, FuGENE 6), membranes
T2 sequence (P32214 25-479 isoform P32214-2 limits assumed): T1 sequence (P32214 25-479 isoform P32214-2 limits assumed)
T2 sequence (Q9JJ73 23-147 partner): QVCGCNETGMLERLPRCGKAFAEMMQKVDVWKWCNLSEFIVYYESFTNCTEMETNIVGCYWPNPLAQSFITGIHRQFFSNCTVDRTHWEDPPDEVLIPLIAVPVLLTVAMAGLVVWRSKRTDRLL
Description: ASSAY (VI) binding to the rat amylin receptor. Conditions: for pIC50: binding to rat amylin receptor, read-out: rAmylin-R bind IC50. Summed up: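 Binding to the rat amylin receptor was determined with membrane preparations. The receptor was expressed by transiently transfecting BHK tk′ts 13 cells with rat calcitonin receptor, using FuGENE® 6 (Roche) according to the manufacturer's recommendations. Roughly 48 hours later the cells were harvested and their membranes isolated.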

Data set [3] concerns the target T3, human calcitonin (a) receptor in BHK570 cells (Homo sapiens, UniProt P30988).
T3 construct: expressed in transfected cells
T3 sequence (P30988 25-474): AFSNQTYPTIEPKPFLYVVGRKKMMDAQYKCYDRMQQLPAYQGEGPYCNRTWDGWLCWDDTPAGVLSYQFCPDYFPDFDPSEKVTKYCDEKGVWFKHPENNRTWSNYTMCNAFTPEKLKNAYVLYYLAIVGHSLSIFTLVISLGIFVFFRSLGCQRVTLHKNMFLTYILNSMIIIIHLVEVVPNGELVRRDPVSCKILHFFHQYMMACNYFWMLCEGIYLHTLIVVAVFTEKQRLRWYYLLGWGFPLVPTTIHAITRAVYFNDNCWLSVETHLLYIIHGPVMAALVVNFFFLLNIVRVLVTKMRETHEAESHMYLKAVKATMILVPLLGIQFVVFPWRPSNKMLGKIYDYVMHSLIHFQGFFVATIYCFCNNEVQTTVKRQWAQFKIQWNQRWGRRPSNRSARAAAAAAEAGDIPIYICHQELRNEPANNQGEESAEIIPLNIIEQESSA
Kind of data set: ASSAY (II)a functional assay, human calcitonin receptor (CRE luciferase). It is filed as cell-based. Conditions: read-out: hCTR funct. EC50. Summed up:
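Cells were seeded and cultured overnight, then incubated with standard or sample for 3 h at 37° C in serum-containing medium at pH 7.4. The medium was then swapped for PBS, LucLite was added for 30 min at room temperature, and luminescence was recorded. Cells were BHK with CRE-luc and calcitonin receptor, ± RAMP-3.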

A short description of data set [4]: ASSAY (IV) determination of solubility. Format: physicochemical. Summed up: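 Dissolve polypeptide in water ([…] stock); combine 1:1 with each 100 mM buffer (glycylglycine pH 3.0/4.0/5.0; bistrispropane pH 6.0/6.5/7.0/7.5/8.0); hold 18 hours at room temperature; centrifuge; quantify polypeptide by UPLC.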
Data set [5] deals with T4, human calcitonin receptor (Homo sapiens, UniProt P30988).
T4 construct: expressed in transfected cells
T4 sequence (P30988 25-474): T3 sequence (P30988 25-474)
Kind of data set: ASSAY (VII) binding to the human calcitonin receptor (SPA, 125I-Calcitonin).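 Further: cell membranes (35 ng/µL) combined with SPA beads in 40 µL of pH 7.4 Hepes buffer, 384-well format, signal counted on a TopCounter instrument.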 The following applies: read-out: hCTR bind IC50.

Where [6] appears, read: Table 7, rat binding selectivity, rCTR IC50 / rAmylin-R IC50.
Setting [7] is: Table 7a (preferred compounds), rat binding selectivity, rCTR IC50 / rAmylin-R IC50.
Where [8] appears, read: ratio of rCTR bind IC50 to rAmylin-R bind IC50.
The mark [9] stands for this setting: bistrispropane buffer, pH 6.5, read-out: Solubility pH 6.5 Concentration.
Setting [10] is: bistrispropane buffer, pH 7.5, read-out: Solubility pH 7.5 Concentration.
The mark [11] stands for this setting: bistrispropane buffer, pH 6.0, read-out: Solubility pH 6.0 Concentration.
The mark [12] stands for this setting: bistrispropane buffer, pH 7.0, read-out: Solubility pH 7.0 Concentration.
Where [13] appears, read: bistrispropane buffer, pH 8.0, read-out: Solubility pH 8.0 Concentration.
[14] abbreviates: glycylglycine buffer, pH 3.0, read-out: Solubility pH 3.0 Concentration.
Where [15] appears, read: glycylglycine buffer, pH 4.0, read-out: Solubility pH 4.0 Concentration.
The mark [16] stands for this setting: glycylglycine buffer, pH 5.0, read-out: Solubility pH 5.0 Concentration.

Take `CC[C@H](C)[C@H](NC(=O)[C@H](C)NC(=O)CNC(=O)[C@H](Cc1ccccc1)NC(=O)[C@H](CC(N)=O)NC(=O)[C@@H]1CCCN1C(=O)[C@H](CO)NC(=O)[C@H](CO)NC(=O)[C@H](Cc1c[nH]cn1)NC(=O)[C@H](CCCNC(=N)N)NC(=O)[C@H](CC(C)C)NC(=O)[C@H](Cc1ccccc1)NC(=O)[C@H](CC(N)=O)NC(=O)[C@H](C)NC(=O)[C@H](CC(C)C)NC(=O)[C@H](CCCNC(=N)N)NC(=O)[C@H](CCC(N)=O)NC(=O)[C@@H](NC(=O)[C@H](C)NC(=O)[C@@H]1CSSC[C@H](NC(=O)[C@@H](N)CCCCNC(=O)COCCOCCNC(=O)CC[C@H](NC(=O)CCCCCCCCCCCCCCCCCCC(=O)O)C(=O)O)C(=O)N[C@@H](CC(N)=O)C(=O)N[C@@H]([C@@H](C)O)C(=O)N[C@@H](C)C(=O)N[C@@H]([C@@H](C)O)C(=O)N1)[C@@H](C)O)C(=O)N1CCC[C@H]1C(=O)N[C@@H](CO)C(=O)N1CCC[C@H]1C(=O)N[C@H](C(=O)N1CCC[C@H]1C(=O)N[C@H](C(=O)NCC(=O)N[C@@H](CO)C(=O)N[C@@H](CC(N)=O)C(=O)N[C@H](C(=O)N[C@@H](Cc1ccc(O)cc1)C(N)=O)[C@@H](C)O)C(C)C)[C@@H](C)O` [Example 54] (H-K([AEEA-γGlu-C20 diacid])CNTATCATQRLANFLRHSSPNFGAIPSPTPVGSNTY-NH2; disulfide 2-7; N-terminus assumed): the figures for the negative-log IC50 (pIC50) in data set [1], in data set [2] (Table 7) and in data set [5] were 8.06, 10.31 and 8.36, respectively. The “Ratio rCT/rAmylin binding” value in data set [2] (setting [6]), in data set [2] (setting [7]) and in data set [2] (setting [8]) was 179.4 throughout. In addition, the pEC50 in data set [3] is 9.01. The solubility at 18 h in data set [4] (setting [9]), in data set [4] (setting [10]), in data set [4] (setting [11]), in data set [4] (setting [12]), in data set [4] (setting [13]) and in data set [4] (setting [14]) was not below 200 µM each time. For the same molecule, the solubility at 18 h in data set [4] (setting [15]) and in data set [4] (setting [16]) was not below 200 µM each time.

For `CC[C@H](C)[C@H](NC(=O)[C@H](C)NC(=O)CNC(=O)[C@H](Cc1ccccc1)NC(=O)[C@H](CC(N)=O)NC(=O)[C@@H]1CCCN1C(=O)[C@H](CO)NC(=O)[C@H](CO)NC(=O)[C@H](Cc1c[nH]cn1)NC(=O)[C@H](CCCNC(=N)N)NC(=O)[C@H](CC(C)C)NC(=O)[C@H](Cc1ccccc1)NC(=O)[C@H](CC(N)=O)NC(=O)[C@H](C)NC(=O)[C@H](CC(C)C)NC(=O)[C@H](CCCNC(=N)N)NC(=O)[C@H](CCC(N)=O)NC(=O)[C@@H](NC(=O)[C@H](C)NC(=O)[C@@H]1CSSC[C@H](NC(=O)[C@@H](N)CCCCNC(=O)COCCOCCNC(=O)CC[C@H](NC(=O)CCCCCCCCCCCCCCCCCCC(=O)O)C(=O)O)C(=O)N[C@@H](CC(N)=O)C(=O)N[C@@H]([C@@H](C)O)C(=O)N[C@@H](C)C(=O)N[C@@H]([C@@H](C)O)C(=O)N1)[C@@H](C)O)C(=O)N1CCC[C@H]1C(=O)N1CCC[C@H]1C(=O)N[C@@H](CO)C(=O)N[C@H](C(=O)N[C@@H](CC(N)=O)C(=O)N[C@H](C(=O)NCC(=O)N1CCC[C@H]1C(=O)N[C@@H](CC(N)=O)C(=O)N[C@H](C(=O)N[C@@H](Cc1ccc(O)cc1)C(N)=O)[C@@H](C)O)C(C)C)[C@@H](C)O` [Example 55] (H-K([AEEA-γGlu-C20 diacid])CNTATCATQRLANFLRHSSPNFGAIPPSTNVGPNTY-NH2; disulfide 2-7; N-terminus assumed), the pIC50 in data set [1] was 8.20; in data set [2] (Table 7), 10.09; in data set [5] it was 8.66. Further, the “Ratio rCT/rAmylin binding” value in data set [2] (setting [6]), in data set [2] (setting [7]) and in data set [2] (setting [8]) was 77.2 each time. In data set [3], the pEC50 is 9.14. For the same molecule, the solubility at 18 h in data set [4] (setting [9]) is not below 200 µM; in data set [4] (setting [10]), not below 200 µM; in data set [4] (setting [11]), not below 200 µM; in data set [4] (setting [12]), not below 200 µM; in data set [4] (setting [13]) it was 119 µM (≈ 541 µg/mL); in data set [4] (setting [14]), not below 200 µM. Besides, the solubility at 18 h in data set [4] (setting [15]) and in data set [4] (setting [16]) was not below 200 µM in each case.

Take `CC[C@H](C)[C@H](NC(=O)[C@H](C)NC(=O)CNC(=O)[C@H](Cc1ccccc1)NC(=O)[C@H](CC(N)=O)NC(=O)[C@H](CCCCNC(=O)CC[C@H](NC(=O)CC[C@H](NC(=O)CCCCCCCCCCCCCCCCCCC(=O)O)C(=O)O)C(=O)O)NC(=O)[C@H](CO)NC(=O)[C@H](CO)NC(=O)[C@H](Cc1c[nH]cn1)NC(=O)[C@H](CCCNC(=N)N)NC(=O)[C@H](CC(C)C)NC(=O)[C@H](Cc1ccccc1)NC(=O)[C@H](CC(=O)O)NC(=O)[C@H](C)NC(=O)[C@H](CC(C)C)NC(=O)[C@H](CCCNC(=N)N)NC(=O)[C@H](CCC(N)=O)NC(=O)[C@@H](NC(=O)[C@H](C)NC(=O)[C@@H]1CSSC[C@H](NC(=O)[C@@H](N)CCCCN)C(=O)N[C@@H](CC(N)=O)C(=O)N[C@@H]([C@@H](C)O)C(=O)N[C@@H](C)C(=O)N[C@@H]([C@@H](C)O)C(=O)N1)[C@@H](C)O)C(=O)N1CCC[C@H]1C(=O)N[C@@H](CO)C(=O)N[C@@H](CO)C(=O)N[C@H](C(=O)N[C@@H](CC(N)=O)C(=O)N[C@H](C(=O)NCC(=O)N[C@@H](CO)C(=O)N[C@@H](CC(=O)O)C(=O)N[C@H](C(=O)N[C@@H](Cc1ccc(O)cc1)C(N)=O)[C@@H](C)O)C(C)C)[C@@H](C)O` [Example 59] (H-KCNTATCATQRLADFLRHSSK([γGlu-γGlu-C20 diacid])NFGAIPSSTNVGSDTY-NH2; disulfide 2-7; N-terminus assumed): the pIC50 was 7.73 in data set [1], 9.18 in data set [2] (Table 7) and 8.29 in data set [5]. The “Ratio rCT/rAmylin binding” value in data set [2] (setting [6]) and in data set [2] (setting [7]) was 28.5 in each case. Moreover, the pEC50 in data set [3] is 8.71. For the same molecule, the solubility at 18 h in data set [4] (setting [9]), in data set [4] (setting [10]), in data set [4] (setting [11]), in data set [4] (setting [12]), in data set [4] (setting [13]) and in data set [4] (setting [14]) was not below 200 µM in each case. Further, the solubility at 18 h in data set [4] (setting [15]) and in data set [4] (setting [16]) was not below 200 µM throughout.
